From PMC6063448, “Antimicrobial activity of linear lipopeptides derived from BP100 towards plant pathogens” (PLoS ONE, 2018) come the findings set out here.

Common to all, as to assay type: cell-based
Experiment [1] relates to Fusarium oxysporum f. sp. lycopersici FOL 3 race 2. Nature of the experiment: MIC, antifungal growth inhibition in microtiter plates (PDB). Conditions: Fo, 22°C, seven days, OD 600 nm, lowest concentration with no growth, given as interval of tested concentrations, three replicates, experiment repeated twice. As for the experimental part: (§1) The following plant pathogenic fungal strains were used: Penicillium expansum EPS26 (Institut de Tecnologia Agroalimentària, Universitat de Girona, Spain) and Fusarium oxysporum f. sp. lycopersici FOL 3 race 2 (ATCC 201829, American Type Culture Collection,Virginia, EEUU). Strains were cultured on potato dextrose agar (PDA) plates (Difco). Conidia from P. expansum and microconidia from F. oxysporum were obtained from 5–7 day-old agar Potato Dextrose (PDA) cultures after growth at 25°C. Inoculum was prepared by scraping spore material from culture surfaces with a cotton swab and resuspending it in distilled water containing 0.5‰ of tween 80. The suspensions were filtered through Miracloth (Merk, Millipore) and the concentration of conidia was determined using a hemacytometer and adjusted to 10^4 conidia mL^-1 for F. oxysporum and to 10^3 conidia mL^-1 for P. expansum.
(§2) Lyophilized peptides were solubilized in sterile Milli-Q water to a final concentration of 1 mM and filter sterilized through a 0.22-μm pore filter. […] For antibacterial activity 20 μL of each dilution were mixed in a microtiter plate well with 20 μL of the corresponding suspension of the bacterial indicator, 160 μL of Trypticase Soy Broth (TSB) (BioMèrieux, France) to a total volume of 200 μL. For antifungal activity 20 μL of each stock solution were mixed in a microtiter plate well with 80 μL of the corresponding suspension of the fungal pathogen and 100 μL of double concentrated Potato Dextrose Broth (PDB) to a total volume of 200 μL containing 0.003% w/v of chloramphenicol to prevent bacterial contamination.
(§3) Three replicates for each combination of strain, compound and concentration were used. Microbial growth was determined by optical density measurement at 600 nm (Bioscreen C, Labsystem, Helsinki, Finland). For antibacterial activity microplates were incubated at 25°C with 20 s shaking before hourly absorbance measurement for 48 h. For antifungal activity microplates were incubated at 22°C with 1 min shaking before absorbance measurement that were done every two hours during seven days. The experiment was repeated twice. The MIC was taken as the lowest compound concentration with no growth at the end of the experiment.

Experiment [2] deals with Penicillium expansum EPS26. Described as above. Conditions: Pe, 22°C, seven days, OD 600 nm, lowest concentration with no growth, given as interval of tested concentrations, three replicates, experiment repeated twice. As for the experimental part:
as §1, §2, §3

The test system of experiment [3] is Pseudomonas syringae pv. actinidiae Psa3700.1.1. Nature of the experiment: MIC, growth inhibition in microtiter plates (TSB). Conditions: Psa, 25°C, 48 h, OD 600 nm, lowest concentration with no growth, given as interval of tested concentrations, three replicates, experiment repeated twice.
Description: (§4) The following plant pathogenic bacterial strains were used: Erwinia amylovora PMV6076 (Institut National de la Recherche Agronomique, Angers, France), Pseudomonas syringae pv. syringae EPS94 (Institut de Tecnologia Agroalimentària, Universitat de Girona, Spain), Xanthomonas axonopodis pv. vesicatoria 2133–2, Pseudomonas syringae pv. actinidiae Psa3700.1.1, Xanthomonas fragariae Xf349-9A (Instituto Valenciano de Investigaciones Agrarias, Valencia, Spain), and Xanthomonas arboricola pv. pruni CFBP5563 (Collection Française de Bactéries associées aux Plantes, Angers, France). All bacteria except for X. fragariae were stored in Luria Bertani (LB) broth supplemented with glycerol (20%) and maintained at -80°C. For X. fragariae, Medium B [46] was used instead of LB. E. amylovora, X. arboricola pv. pruni, P. syringae pv. syringae and P. syringae pv. actinidiae were scrapped from the agar media after growing for 24 h at 25°C, and X. axonopodis pv. vesicatoria and X. fragariae after growing for 48 h at 25°C. The cell material was suspended in sterile water to obtain a suspension of 10^8 CFU mL^-1.
as §2, §3

For experiment [4], the system named is Xanthomonas axonopodis pv. vesicatoria 2133–2. Nature of the experiment: MIC, growth inhibition in microtiter plates (TSB). As to conditions: Xav, 25°C, 48 h, OD 600 nm, lowest concentration with no growth, given as interval of tested concentrations, three replicates, experiment repeated twice.
Description: as §4, §2, §3

In experiment [5] the test system is Xanthomonas arboricola pv. pruni CFBP5563. In words: MIC, growth inhibition in microtiter plates (TSB). As to conditions: Xap, 25°C, 48 h, OD 600 nm, lowest concentration with no growth, given as interval of tested concentrations, three replicates, experiment repeated twice.
Description: as §4, §2, §3

The subject of experiment [6] is Pseudomonas syringae pv. syringae EPS94. In words: MIC, growth inhibition in microtiter plates (TSB). As to conditions: Pss, 25°C, 48 h, OD 600 nm, lowest concentration with no growth, given as interval of tested concentrations, three replicates, experiment repeated twice.
Description: as §4, §2, §3

The subject of experiment [7] is Erwinia amylovora PMV6076. In words: MIC, growth inhibition in microtiter plates (TSB). Conditions: Ea, 25°C, 48 h, OD 600 nm, lowest concentration with no growth, given as interval of tested concentrations, three replicates, experiment repeated twice.
Description: as §4, §2, §3

In experiment [8] the test system is Xanthomonas fragariae Xf349-9A. In words: MIC, growth inhibition in microtiter plates (TSB). Conditions: Xf, 25°C, 48 h, OD 600 nm, lowest concentration with no growth, given as interval of tested concentrations, three replicates, experiment repeated twice.
Description: as §4, §2, §3

By MIC is commonly meant the smallest concentration in the dilution series that meets the test's criterion for growth inhibition.

`CCCC(=O)NCCCC[C@H](NC(=O)[C@H](CCCCN)NC(=O)[C@H](CCCCN)NC(C)=O)C(=O)N[C@@H](Cc1ccccc1)C(=O)N[C@@H](CCCCN)C(=O)N[C@@H](CCCCN)C(=O)N[C@H](C(=O)N[C@@H](CC(C)C)C(=O)N[C@@H](CCCCN)C(=O)N[C@@H](Cc1ccc(O)cc1)C(=O)N[C@@H](CC(C)C)C(N)=O)[C@@H](C)CC` [BP382, Ac-KKK(COC3H7)FKKILKYL-NH2]: the minimal inhibitory concentration (MIC) in experiment [1] lay in the range of 0.8 to 1.6 µM; in experiment [2], 3.1 to 6.2 µM; in experiment [3] it was 6.2 to 12.5 µM; in experiment [4], 6.2 to 12.5 µM; in experiment [5], 6.2 to 12.5 µM; in experiment [6] it was 6.2 to 12.5 µM. Moreover, the MIC in experiment [7] is 6.2 to 12.5 µM; in experiment [8] it was 1.6 to 3.1 µM.

Consider `CCCC(=O)NCCCC[C@H](NC(=O)[C@H](CC(C)C)NC(=O)[C@H](CCCCN)NC(=O)[C@H](CCCCN)NC(C)=O)C(=O)N[C@@H](CCCCN)C(=O)N[C@@H](CCCCN)C(=O)N[C@H](C(=O)N[C@@H](CC(C)C)C(=O)N[C@@H](CCCCN)C(=O)N[C@@H](Cc1ccc(O)cc1)C(=O)N[C@@H](CC(C)C)C(N)=O)[C@@H](C)CC` [BP383, Ac-KKLK(COC3H7)KKILKYL-NH2], for which the MIC fell in the range of 0.8 to 1.6 µM in experiment [1]; 6.2 to 12.5 µM in experiment [2]; 6.2 to 12.5 µM in experiment [3]; 3.1 to 6.2 µM in experiment [4]; 6.2 to 12.5 µM in experiment [5]; 6.2 to 12.5 µM in experiment [6]. Also, the minimum inhibitory concentration (MIC) was 6.2 to 12.5 µM in experiment [7] and 3.1 to 6.2 µM in experiment [8].

For `CCCC(=O)NCCCC[C@H](NC(=O)[C@H](Cc1ccccc1)NC(=O)[C@H](CC(C)C)NC(=O)[C@H](CCCCN)NC(=O)[C@H](CCCCN)NC(C)=O)C(=O)N[C@@H](CCCCN)C(=O)N[C@H](C(=O)N[C@@H](CC(C)C)C(=O)N[C@@H](CCCCN)C(=O)N[C@@H](Cc1ccc(O)cc1)C(=O)N[C@@H](CC(C)C)C(N)=O)[C@@H](C)CC` [BP384, Ac-KKLFK(COC3H7)KILKYL-NH2], the minimum inhibitory concentration (MIC) in experiment [1] fell in the range of 1.6 to 3.1 µM; in experiment [2] it was 12.5 to 25 µM; in experiment [3], 6.2 to 12.5 µM; in experiment [4], 1.6 to 3.1 µM; in experiment [5] it was 3.1 to 6.2 µM; in experiment [6], 6.2 to 12.5 µM. Further, the minimum inhibitory concentration (MIC) in experiment [7] lay within 3.1 to 6.2 µM; in experiment [8], 1.6 to 3.1 µM.

Consider `CCCC(=O)NCCCC[C@H](NC(=O)[C@H](CC(C)C)NC(=O)[C@@H](NC(=O)[C@H](CCCCN)NC(=O)[C@H](CCCCN)NC(=O)[C@H](Cc1ccccc1)NC(=O)[C@H](CC(C)C)NC(=O)[C@H](CCCCN)NC(=O)[C@H](CCCCN)NC(C)=O)[C@@H](C)CC)C(=O)N[C@@H](Cc1ccc(O)cc1)C(=O)N[C@@H](CC(C)C)C(N)=O` [BP388, Ac-KKLFKKILK(COC3H7)YL-NH2], for which the minimal inhibitory concentration (MIC) in experiment [1] is 0.8 to 1.6 µM; in experiment [2] it was 6.2 to 12.5 µM; in experiment [3], 6.2 to 12.5 µM; in experiment [4] it was 1.6 to 3.1 µM; in experiment [5], 3.1 to 6.2 µM; in experiment [6] it was 6.2 to 12.5 µM. The MIC in experiment [7] fell in the range of 3.1 to 6.2 µM; in experiment [8], 1.6 to 3.1 µM.

On to `CCCCCCCCCCCC(=O)N[C@@H](CCCCN)C(=O)N[C@@H](CCCCN)C(=O)N[C@@H](CC(C)C)C(=O)N[C@@H](Cc1ccccc1)C(=O)N[C@@H](CCCCN)C(=O)N[C@@H](CCCCN)C(=O)N[C@H](C(=O)N[C@@H](CC(C)C)C(=O)N[C@@H](CCCCN)C(=O)N[C@@H](Cc1ccc(O)cc1)C(=O)N[C@@H](CC(C)C)C(N)=O)[C@@H](C)CC` [BP391, C11H23CO-KKLFKKILKYL-NH2], for which the MIC is 12.5 to 25 µM in experiment [1]; greater than 25 µM in experiment [2]; greater than 25 µM in experiment [3]; 6.2 to 12.5 µM in experiment [4]; 6.2 to 12.5 µM in experiment [5]; greater than 25 µM in experiment [6]. Besides, the MIC in experiment [7] is greater than 25 µM; in experiment [8] it was 3.1 to 6.2 µM.

As for `CCCCCCCCCCCC(=O)NCCCC[C@H](NC(C)=O)C(=O)N[C@@H](CCCCN)C(=O)N[C@@H](CC(C)C)C(=O)N[C@@H](Cc1ccccc1)C(=O)N[C@@H](CCCCN)C(=O)N[C@@H](CCCCN)C(=O)N[C@H](C(=O)N[C@@H](CC(C)C)C(=O)N[C@@H](CCCCN)C(=O)N[C@@H](Cc1ccc(O)cc1)C(=O)N[C@@H](CC(C)C)C(N)=O)[C@@H](C)CC` [BP392, Ac-K(COC11H23)KLFKKILKYL-NH2], the MIC in experiment [1] was 6.2 to 12.5 µM; in experiment [2], greater than 25 µM; in experiment [3], greater than 25 µM; in experiment [4], 3.1 to 6.2 µM; in experiment [5] it was 3.1 to 6.2 µM; in experiment [6], greater than 25 µM. Besides, the MIC in experiment [7] was greater than 25 µM; in experiment [8] it was 0.8 to 1.6 µM.

Regarding `CCCCCCCCCCCC(=O)NCCCC[C@H](NC(=O)[C@H](CCCCN)NC(C)=O)C(=O)N[C@@H](CC(C)C)C(=O)N[C@@H](Cc1ccccc1)C(=O)N[C@@H](CCCCN)C(=O)N[C@@H](CCCCN)C(=O)N[C@H](C(=O)N[C@@H](CC(C)C)C(=O)N[C@@H](CCCCN)C(=O)N[C@@H](Cc1ccc(O)cc1)C(=O)N[C@@H](CC(C)C)C(N)=O)[C@@H](C)CC` [BP393, Ac-KK(COC11H23)LFKKILKYL-NH2], the MIC in experiment [1] is 1.6 to 3.1 µM; in experiment [2] it was greater than 25 µM; in experiment [3] it was 6.2 to 12.5 µM; in experiment [4] it was 3.1 to 6.2 µM; in experiment [5], 3.1 to 6.2 µM; in experiment [6] it was 12.5 to 25 µM. Besides, the minimum inhibitory concentration (MIC) in experiment [7] lay in the range of 12.5 to 25 µM; in experiment [8], 3.1 to 6.2 µM.

For `CCCCCCCCCCCC(=O)NCCCC[C@H](NC(=O)[C@H](CCCCN)NC(=O)[C@H](CCCCN)NC(C)=O)C(=O)N[C@@H](Cc1ccccc1)C(=O)N[C@@H](CCCCN)C(=O)N[C@@H](CCCCN)C(=O)N[C@H](C(=O)N[C@@H](CC(C)C)C(=O)N[C@@H](CCCCN)C(=O)N[C@@H](Cc1ccc(O)cc1)C(=O)N[C@@H](CC(C)C)C(N)=O)[C@@H](C)CC` [BP394, Ac-KKK(COC11H23)FKKILKYL-NH2], the minimal inhibitory concentration (MIC) in experiment [1] fell in the range of 6.2 to 12.5 µM; in experiment [2], 12.5 to 25 µM; in experiment [3], 6.2 to 12.5 µM; in experiment [4], 1.6 to 3.1 µM; in experiment [5], 1.6 to 3.1 µM; in experiment [6], 6.2 to 12.5 µM. Besides, the MIC in experiment [7] was in the range of 12.5 to 25 µM; in experiment [8], 0.8 to 1.6 µM.
